Assay results from PMC7804942, “The amphibian peptide Yodha is virucidal for Zika and dengue viruses” (Scientific Reports, 2021).
pIC50: −log10 of the molar value. Where no end group is shown, it is not given here.

What was measured:
DENV3 = details: FFA
Experimental: Dengue virus strains 1, 2, 3 and 4 were treated with wither Yodha or control OVA peptide at (A) 50 µM (B) 160 µM concentration and the % of viral focus forming units were determined. (C) IC50 measurement of Yodha in DENVs infection by FFA. […] OVA peptide was used a negative control.
(§1) Peptides were incubated with ZIKV (100 FFU/well) for 2 h at 37 °C. This incubated mixture was used to infect Vero cells for 1.5 h at 37 °C. Cells and inoculum were overlaid with 2% methylcellulose solution (OptiMEM; Gibco) and incubated for 72 h at 37 °C. Cells were washed with PBS and fixed with a 1:1 methanol/acetone mixture for 30 min. Cells were blocked with 5% milk/PSB at room temperature for 20 min and incubated with primary antibody (anti-flavivirus mouse 4G2[10] antibody) for 2 h at 37 °C. Then, cells were incubated with secondary antibody (HRP-conjugated goat anti-mouse IgG, Cell Signaling) for 1 h at 37 °C. Cells were developed with TrueBlue Peroxidase Substrate (KPL). Plates were read on a CTL-ImmunoSpot S6 Micro analyzer.

ZIKV = ZIKV neutralisation by mutant, enantiomer and variant peptides (strain not stated); assay type: cell-based, Zika virus
Experimental: To further characterize Yodha peptide, we generated alanine-scanning mutants of the peptide, which removes the side chain, but maintains peptide conformation, allowing for the assessment of the significance of each amino acid within the larger structure (Fig. 4A). Each of 23 mutated peptides was tested for its (a) ability to neutralize ZIKV (Fig. 4B) and (b) toxicity against human RBC, if any (Fig. 4C).
So next, we sought to determine how common this peptide or its analogs are in host defense peptides isolated from elsewhere in the world. […] We then determined the extent to which any of these variant peptides can neutralize ZIKV. […] We also generated a series of mutant Yodha peptides, including one which lacks the C terminal DDQERC, a short 12 peptide fragment that lacks the EEERGA from variant #12, and a S1P peptide that replace S1-P in the full-length Yodha (Fig. 5D) and tested their activity against ZIKV (Fig. 5D).
as §1

## PMLLLFFLGTISLSLCQ [truncated Yodha variant 12]
DENV3; dose escalation
  efficiency against DENV3 compared to the full length Yodha peptide: very efficient
DENV3; read-out: IC50 for DENV3
  pIC50: 4.52
ZIKV
  activity of truncated and S1P mutant peptides against ZIKV versus WT Yodha: significantly improved activity

## PMLLLFFLGTISLSLCQEERGA [variant 21, naturally occurring variant of Yodha isolated from the frog I. temporalis]
ZIKV
  virucidal activity of naturally occurring variants against ZIKV: exhibited activity

## PMLLLFFLGTISLSLCQEEERGA [variant #12, brevinin-2KK2, naturally occurring variant of Yodha from Rana kukunoris]
ZIKV
  increased effect against ZIKV than Yodha peptide: 1.6 fold
